Data on five compounds can be found in patent US20090162413A1 (priority 1998, published 2009).

The conditions of data set [1]: cynomolgus monkey, in vivo, iv, 2.5 mg/kg.
For data set [2], the system named is Human MLR. Briefly: human mixed lymphocyte reaction (MLR) assay. The following applies: read-out: Human MLR IC50 ± S.E.M. Format: cell-based.
Data set [3] concerns human coronary artery smooth muscle cells (hCaSMC). The data set can be described thus: 3H-thymidine uptake proliferation assay, hCaSMC. Format: cell-based. As to the method: Experiments were performed to investigate interactions between zotarolimus (ABT-578) and paclitaxel when administered in combination. The effects of paclitaxel and zotarolimus on the anti-proliferative activity of human coronary artery smooth muscle ([…]) and endothelial […] determined using an in vitro proliferation assay. The proliferation and migration of vascular smooth muscle cells into the vascular neointima is a characteristic pathologic response seen in restenotic lesions (Lafont and Libby, 1998). As a result, in vitro assays which specifically measure the anti-proliferative activity of candidate anti-restenotic compounds on human coronary artery smooth muscle and endothelial cells predict potential anti-restenotic activity in vivo. Compounds or combinations of compounds which attenuate growth factor-mediated human coronary artery smooth muscle cell ([…]) proliferation, as measured by the tritium incorporation assay in vitro, are candidate anti-restenotic agents. The tritium incorporation assay is an accurate and sensitive method to determine cell number and proliferation. […] The attenuation of zotarolimus's anti-proliferative activity by tacrolimus is a clear example of this effect (FIG. 10A). To determine the potential anti-restenotic activity of combinations of zotarolimus and paclitaxel, the proliferation of […] was measured in the presence of each compound and in combination. To determine if paclitaxel attenuated or augmented the activity of zotarolimus the effect of paclitaxel and zotarolimus alone and in combination on growth-factor induced proliferation was determined. Data were analyzed for additivity using an isobologram approach and a combination index analysis. An isobologram is a Cartesian plot of pairs of doses that, in combination, yield a specified level of effect. It is a convenient way of graphically displaying results of drug-combination and similar studies, because paired values of experimental points that fall below or above the line connecting the axial points indicate synergistic and non-synergistic interactions, respectively. Cell proliferation was monitored by following incorporation of ^3H-thymidine into newly synthesized DNA of cells stimulated by serum and growth factors. Exponentially growing […] were seeded into 96-well flat bottom tissue culture plates at 5,000 cells/well (10,000 cells/well for […]). The cells were allowed to attach overnight. The growth medium was removed the following day, and cells were washed twice with un-supplemented (basal) medium to remove traces of serum and growth factors. […] PerkinElmer; Wellesley; MA) was added to each filter well and the plates were counted using a TopCount microplate scintillation counter (PerkinElmer). […]

Data set [4] deals with human coronary artery endothelial cells (hCaEC). Briefly: 3H-thymidine uptake proliferation assay, hCaEC. The data set is classed as cell-based. As to the method: Experiments were performed to investigate interactions between zotarolimus (ABT-578) and paclitaxel when administered in combination. The effects of paclitaxel and zotarolimus on the anti-proliferative activity of human coronary artery smooth muscle ([…]) and endothelial […] determined using an in vitro proliferation assay. The proliferation and migration of vascular smooth muscle cells into the vascular neointima is a characteristic pathologic response seen in restenotic lesions (Lafont and Libby, 1998). As a result, in vitro assays which specifically measure the anti-proliferative activity of candidate anti-restenotic compounds on human coronary artery smooth muscle and endothelial cells predict potential anti-restenotic activity in vivo. To determine if paclitaxel attenuated or augmented the activity of zotarolimus the effect of paclitaxel and zotarolimus alone and in combination on growth-factor induced proliferation was determined. Data were analyzed for additivity using an isobologram approach and a combination index analysis. An isobologram is a Cartesian plot of pairs of doses that, in combination, yield a specified level of effect. It is a convenient way of graphically displaying results of drug-combination and similar studies, because paired values of experimental points that fall below or above the line connecting the axial points indicate synergistic and non-synergistic interactions, respectively. Cell proliferation was monitored by following incorporation of ^3H-thymidine into newly synthesized DNA of cells stimulated by serum and growth factors. Exponentially growing […] were seeded into 96-well flat bottom tissue culture plates at 5,000 cells/well (10,000 cells/well for […]). The cells were allowed to attach overnight. […] PerkinElmer; Wellesley; MA) was added to each filter well and the plates were counted using a TopCount microplate scintillation counter (PerkinElmer). […] The concentration eliciting a specific anti-proliferative effect was determined using a four-parameter equation (equation 1): […]

Data set [5] can be described thus: accelerated in vitro elution from PC1036 coated drug-loaded stents (Example 10). The data set is classed as physicochemical. The note with it: stents with 10 μg/mm zotarolimus alone or with paclitaxel.

For “40-epi-N-[2′-pyridone]-rapamycin [Example 2-pyridone]”, the AUC in data set [1] was determined as 2.55 ng·h/mL.

As for `CO[C@H]1C[C@@H]2CC[C@@H](C)[C@@](O)(O2)C(=O)C(=O)N2CCCC[C@H]2C(=O)O[C@H]([C@H](C)C[C@@H]2CC[C@@H](O)[C@H](OC)C2)CC(=O)[C@H](C)/C=C(\C)[C@@H](O)[C@@H](OC)C(=O)[C@H](C)C[C@H](C)/C=C/C=C/C=C/1C` [Rapamycin], the IC50 in data set [2] was 0.91 ± 0.36 nM.

Turning to `COC1CC2CCC(C)C(O)(O2)C(=O)C(=O)N2CCCCC2C(=O)OC(C(C)CC2CCC(n3ccc(=O)cc3)C(OC)C2)CC(=O)C(C)C=C(C)C(O)C(OC)C(=O)C(C)CC(C)C=CC=CC=C1C` (stereo not drawn) [Example 4-pyridone, 40-epi-N-[4′-pyridone]-rapamycin], the AUC in data set [1] amounted to 5.59 ng·h/mL.

As to `C=CC[C@@H]1/C=C(\C)C[C@H](C)C[C@H](OC)[C@H]2O[C@@](O)(C(=O)C(=O)N3CCCC[C@H]3C(=O)O[C@H](/C(C)=C/[C@@H]3CC[C@@H](O)[C@H](OC)C3)[C@H](C)[C@@H](O)CC1=O)[C@H](C)C[C@@H]2OC` [tacrolimus], the “effect on the anti-proliferative activity of zotarolimus” value in data set [3] (smooth muscle cells in vitro, FIG. 10A) is listed as “blocks the anti-proliferative activity of zotarolimus”.

With `CC(=O)O[C@H]1C(=O)[C@@]2(C)[C@H]([C@H](OC(=O)c3ccccc3)[C@]3(O)C[C@H](OC(=O)[C@H](O)[C@@H](NC(=O)c4ccccc4)c4ccccc4)C(C)=C1C3(C)C)[C@]1(OC(C)=O)CO[C@@H]1C[C@@H]2O` [PAC, paclitaxel], the IC50 in data set [4] (Homo sapiens, Endothelial cell, read-out: hCaEC IC50 Mean ± SEM) was 4.6 ± 0.3 nM; in data set [3] (Homo sapiens, read-out: hCaSMC IC50 Mean ± SEM), 3 ± 0.5 nM. Moreover, the “effect on the inhibition of proliferation by zotarolimus” value is listed as “not blocked” in data set [4] (hCaEC, FIG. 10C) and “not blocked” in data set [3] (hCaSMC, FIG. 10B). The “effect on the elution profile of zotarolimus” value in data set [5] is on record as “little effect”.
